How the values were obtained:
[1] = tested on: T1, Receptor-type tyrosine-protein kinase FLT3 (Homo sapiens), P36888 [D835Y]; assay: Residual activity of FLT3 D835Y mutant at 1 uM by microplate scintillation counting
T1 sequence (whole entry): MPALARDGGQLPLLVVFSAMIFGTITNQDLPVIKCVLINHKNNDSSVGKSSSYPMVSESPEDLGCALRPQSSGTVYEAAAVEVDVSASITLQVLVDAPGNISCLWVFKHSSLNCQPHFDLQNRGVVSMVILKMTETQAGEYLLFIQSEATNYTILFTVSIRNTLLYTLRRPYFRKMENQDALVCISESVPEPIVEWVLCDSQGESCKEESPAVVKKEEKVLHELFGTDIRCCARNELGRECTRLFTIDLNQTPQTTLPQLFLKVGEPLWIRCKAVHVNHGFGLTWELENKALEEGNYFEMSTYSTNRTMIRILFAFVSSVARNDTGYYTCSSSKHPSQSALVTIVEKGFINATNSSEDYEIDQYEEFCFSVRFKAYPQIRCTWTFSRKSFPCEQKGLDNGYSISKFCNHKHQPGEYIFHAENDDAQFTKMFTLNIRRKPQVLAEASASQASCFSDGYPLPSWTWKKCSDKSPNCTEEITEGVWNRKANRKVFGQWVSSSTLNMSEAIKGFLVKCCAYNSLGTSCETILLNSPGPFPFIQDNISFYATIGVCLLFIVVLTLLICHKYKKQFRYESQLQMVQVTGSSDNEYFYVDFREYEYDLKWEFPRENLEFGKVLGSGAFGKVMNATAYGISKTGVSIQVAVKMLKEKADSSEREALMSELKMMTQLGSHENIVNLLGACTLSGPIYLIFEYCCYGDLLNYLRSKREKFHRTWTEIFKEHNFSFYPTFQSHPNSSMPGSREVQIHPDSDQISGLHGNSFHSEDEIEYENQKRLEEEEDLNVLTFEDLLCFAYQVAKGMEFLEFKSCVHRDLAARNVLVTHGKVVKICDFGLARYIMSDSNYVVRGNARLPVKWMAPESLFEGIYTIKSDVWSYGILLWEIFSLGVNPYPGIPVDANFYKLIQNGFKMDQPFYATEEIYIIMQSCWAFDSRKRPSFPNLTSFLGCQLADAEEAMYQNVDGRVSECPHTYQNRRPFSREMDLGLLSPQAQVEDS

[2] = tested on: Epidermal growth factor receptor (Homo sapiens), P00533 [L858R,T790M]; assay: Residual activity of EGFR T790M/L858R mutant at 0.1 uM by microplate scintillation counting
[3] = molecular target: Casein kinase I isoform gamma-3 (Homo sapiens) (UniProt Q9Y6M4); assay: Residual activity of CK1gamma3 at 10 uM by microplate scintillation counting
Chain of Casein kinase I isoform gamma-3 (Homo sapiens) (Q9Y6M4 whole entry, looked up, canonical isoform): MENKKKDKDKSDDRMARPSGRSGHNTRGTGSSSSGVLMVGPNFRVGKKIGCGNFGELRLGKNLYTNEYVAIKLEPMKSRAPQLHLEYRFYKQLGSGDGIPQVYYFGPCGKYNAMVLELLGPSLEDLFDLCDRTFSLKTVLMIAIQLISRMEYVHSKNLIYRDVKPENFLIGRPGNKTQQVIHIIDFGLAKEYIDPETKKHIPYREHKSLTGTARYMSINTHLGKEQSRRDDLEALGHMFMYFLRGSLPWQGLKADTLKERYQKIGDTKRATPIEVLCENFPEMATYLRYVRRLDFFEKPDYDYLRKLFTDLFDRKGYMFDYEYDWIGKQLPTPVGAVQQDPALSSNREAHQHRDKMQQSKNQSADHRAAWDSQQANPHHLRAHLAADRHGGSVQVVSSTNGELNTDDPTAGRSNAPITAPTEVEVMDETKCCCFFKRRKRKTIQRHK

[4] = molecular target: Casein kinase I isoform alpha (Homo sapiens) (UniProt P48729); assay: Residual activity of CK1alpha1 at 10 uM by microplate scintillation counting
Chain of Casein kinase I isoform alpha (Homo sapiens) (P48729 2-337 limits assumed): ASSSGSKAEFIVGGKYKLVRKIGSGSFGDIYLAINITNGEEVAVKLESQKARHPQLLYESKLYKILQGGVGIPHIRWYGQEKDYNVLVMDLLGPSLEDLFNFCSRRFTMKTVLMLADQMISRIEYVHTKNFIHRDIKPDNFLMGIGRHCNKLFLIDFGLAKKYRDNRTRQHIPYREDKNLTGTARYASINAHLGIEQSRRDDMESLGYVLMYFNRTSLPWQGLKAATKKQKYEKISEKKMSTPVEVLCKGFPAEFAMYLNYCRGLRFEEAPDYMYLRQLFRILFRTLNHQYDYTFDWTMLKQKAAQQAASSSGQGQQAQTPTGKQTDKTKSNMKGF

[5] = molecular target: T2, Tyrosine-protein kinase Mer (Homo sapiens) (UniProt Q12866); assay: Residual activity of MERTK at 1 uM by microplate scintillation counting
T2 sequence (whole entry): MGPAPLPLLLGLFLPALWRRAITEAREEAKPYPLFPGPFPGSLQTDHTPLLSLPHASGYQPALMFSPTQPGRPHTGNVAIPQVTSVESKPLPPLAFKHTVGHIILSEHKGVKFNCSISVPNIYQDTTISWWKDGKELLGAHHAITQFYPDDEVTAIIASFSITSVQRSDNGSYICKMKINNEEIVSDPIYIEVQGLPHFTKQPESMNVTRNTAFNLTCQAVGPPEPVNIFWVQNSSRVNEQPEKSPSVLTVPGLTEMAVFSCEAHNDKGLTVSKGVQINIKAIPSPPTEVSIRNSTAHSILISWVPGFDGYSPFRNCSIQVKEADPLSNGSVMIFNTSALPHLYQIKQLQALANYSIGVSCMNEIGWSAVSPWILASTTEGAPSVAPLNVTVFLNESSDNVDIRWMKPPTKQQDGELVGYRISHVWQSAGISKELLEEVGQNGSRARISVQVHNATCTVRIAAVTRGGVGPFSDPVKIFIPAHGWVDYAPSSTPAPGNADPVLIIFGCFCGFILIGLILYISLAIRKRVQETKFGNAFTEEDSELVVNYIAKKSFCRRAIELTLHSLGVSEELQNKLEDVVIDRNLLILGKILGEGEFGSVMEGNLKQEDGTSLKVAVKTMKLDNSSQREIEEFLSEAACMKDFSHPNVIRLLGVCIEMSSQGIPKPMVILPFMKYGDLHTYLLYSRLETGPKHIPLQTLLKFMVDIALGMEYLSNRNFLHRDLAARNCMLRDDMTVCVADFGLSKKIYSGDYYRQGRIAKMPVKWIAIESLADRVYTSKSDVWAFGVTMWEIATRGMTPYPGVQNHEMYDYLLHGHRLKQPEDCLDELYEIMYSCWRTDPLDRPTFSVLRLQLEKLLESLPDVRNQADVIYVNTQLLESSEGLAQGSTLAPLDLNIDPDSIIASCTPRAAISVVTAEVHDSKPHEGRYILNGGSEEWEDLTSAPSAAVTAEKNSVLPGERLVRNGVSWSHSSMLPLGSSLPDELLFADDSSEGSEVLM

[6] = molecular target: T3, Phosphorylase b kinase gamma catalytic chain, liver/testis isoform (Homo sapiens) (UniProt P15735); assay: Residual activity of PHKG2 at 0.1 uM by microplate scintillation counting
T3 sequence (whole entry): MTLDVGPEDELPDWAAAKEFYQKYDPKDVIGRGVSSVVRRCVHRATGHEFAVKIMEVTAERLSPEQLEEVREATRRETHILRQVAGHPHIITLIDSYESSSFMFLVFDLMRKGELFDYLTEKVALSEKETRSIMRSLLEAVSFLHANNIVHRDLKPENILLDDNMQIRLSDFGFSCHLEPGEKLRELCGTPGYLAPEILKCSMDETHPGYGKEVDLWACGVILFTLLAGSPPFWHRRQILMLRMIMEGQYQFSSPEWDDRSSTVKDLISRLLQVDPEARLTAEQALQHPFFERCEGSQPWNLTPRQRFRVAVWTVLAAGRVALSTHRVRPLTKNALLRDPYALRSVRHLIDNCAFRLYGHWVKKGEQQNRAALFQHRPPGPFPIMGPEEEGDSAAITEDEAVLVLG

[7] = molecular target: Death-associated protein kinase 2 (Homo sapiens) (UniProt Q9UIK4); assay: Residual activity of DAPK2 at 10 uM by microplate scintillation counting
Chain of Death-associated protein kinase 2 (Homo sapiens) (Q9UIK4 whole entry, looked up): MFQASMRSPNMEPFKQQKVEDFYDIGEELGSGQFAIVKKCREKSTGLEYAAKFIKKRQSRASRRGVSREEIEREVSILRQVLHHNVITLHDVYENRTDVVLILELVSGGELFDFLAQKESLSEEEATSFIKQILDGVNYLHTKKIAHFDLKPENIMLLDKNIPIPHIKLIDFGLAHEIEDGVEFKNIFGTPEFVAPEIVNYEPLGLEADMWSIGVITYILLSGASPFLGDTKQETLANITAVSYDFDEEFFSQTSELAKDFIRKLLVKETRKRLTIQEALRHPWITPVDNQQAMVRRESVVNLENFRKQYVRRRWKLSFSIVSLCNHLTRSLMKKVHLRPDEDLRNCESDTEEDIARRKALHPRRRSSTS

residual activity [1]	residual activity [2]	residual activity [3]	residual activity [4]	residual activity [5]	residual activity [6]	SMILES	residual activity [7]
90%	98%	101%	139%	11%	83%	COc1cc2c(Oc3ccc(-c4nc5ccccc5s4)cc3)ncnc2cc1OCCCN1CCCC1	20%
78%	101%	105%	144%	19%	53%	COc1cc2c(Oc3ccc(-c4nc5ccccc5s4)cc3F)ncnc2cc1OCCCN1CCN(C)CC1	16%
95%	100%	107%	155%	16%	86%	COc1cc2c(Oc3ccc(-c4nc5ccccc5s4)cc3)ncnc2cc1OCCCN1CCN(C)CC1	15%

Reference: ChEMBL document CHEMBL1152560, “Substituted 2-arylbenzothiazoles as kinase inhibitors: hit-to-lead optimization” (Bioorg Med Chem, 2009)
